Measurements as given in PubChem BioAssay AID602235 (The Scripps Research Institute Molecular Screening Center, 2012).
The source made the active and inactive calls. The rule behind the calls is not given here.

The compounds below were run against Nuclear receptor coactivator 1 (Homo sapiens) (UniProt Q15788) (assay: inhibition of NCOA1 transcriptional coactivation in cells – cell-based, luciferase reporter, luminescence, dose response (AID 602235;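 note: cells transfected with pGL4.31 reporter plus pBIND-SRC1 vector; potency is for inhibitors that lower SRC1 reporter luminescence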)). Conditions: cell-based SRC1 luciferase reporter.
Sequence of Nuclear receptor coactivator 1 (Homo sapiens) (Q15788 whole entry, looked up): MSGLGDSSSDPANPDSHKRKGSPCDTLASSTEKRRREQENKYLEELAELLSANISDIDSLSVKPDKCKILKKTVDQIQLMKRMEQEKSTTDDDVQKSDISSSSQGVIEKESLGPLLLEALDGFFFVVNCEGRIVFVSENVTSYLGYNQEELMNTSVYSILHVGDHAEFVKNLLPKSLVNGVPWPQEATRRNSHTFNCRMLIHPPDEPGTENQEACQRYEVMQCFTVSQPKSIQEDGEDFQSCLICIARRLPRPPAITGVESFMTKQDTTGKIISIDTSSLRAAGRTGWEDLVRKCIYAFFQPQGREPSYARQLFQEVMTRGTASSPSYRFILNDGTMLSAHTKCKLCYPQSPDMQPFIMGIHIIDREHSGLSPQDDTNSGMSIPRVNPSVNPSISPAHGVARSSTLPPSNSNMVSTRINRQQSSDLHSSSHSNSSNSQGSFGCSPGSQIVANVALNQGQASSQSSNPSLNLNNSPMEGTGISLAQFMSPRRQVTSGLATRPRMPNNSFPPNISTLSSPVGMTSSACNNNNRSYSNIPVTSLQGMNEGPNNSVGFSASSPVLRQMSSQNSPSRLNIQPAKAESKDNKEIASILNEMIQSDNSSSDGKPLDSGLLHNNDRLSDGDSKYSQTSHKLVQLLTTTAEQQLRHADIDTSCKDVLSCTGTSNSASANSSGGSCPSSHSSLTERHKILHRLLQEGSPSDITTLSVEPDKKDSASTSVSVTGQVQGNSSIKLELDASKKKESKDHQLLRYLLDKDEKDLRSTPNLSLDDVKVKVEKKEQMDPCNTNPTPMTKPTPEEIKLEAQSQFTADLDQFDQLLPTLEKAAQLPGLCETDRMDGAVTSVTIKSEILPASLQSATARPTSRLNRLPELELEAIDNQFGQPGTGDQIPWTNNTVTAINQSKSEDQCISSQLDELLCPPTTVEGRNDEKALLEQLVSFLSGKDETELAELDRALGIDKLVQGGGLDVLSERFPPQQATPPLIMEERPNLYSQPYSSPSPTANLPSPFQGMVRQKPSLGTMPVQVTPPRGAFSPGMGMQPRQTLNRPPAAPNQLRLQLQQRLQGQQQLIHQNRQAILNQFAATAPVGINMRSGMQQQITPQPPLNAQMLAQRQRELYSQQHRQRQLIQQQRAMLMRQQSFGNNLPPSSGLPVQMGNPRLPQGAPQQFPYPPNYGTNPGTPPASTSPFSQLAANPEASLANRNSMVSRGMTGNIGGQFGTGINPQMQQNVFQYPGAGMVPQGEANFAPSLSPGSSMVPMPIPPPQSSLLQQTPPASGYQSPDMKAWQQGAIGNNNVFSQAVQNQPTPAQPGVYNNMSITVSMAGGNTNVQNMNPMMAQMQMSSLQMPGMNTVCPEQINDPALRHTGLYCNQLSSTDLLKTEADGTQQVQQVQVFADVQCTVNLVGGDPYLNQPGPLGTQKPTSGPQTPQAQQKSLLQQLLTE

SMILES	IC50
Cc1nc(N2CCC(C(N)=O)CC2)c2c(-c3cccs3)csc2n1	8.59 µM
O=C1CCC/C1=c1\s/c(=C/c2cccnc2)c(=O)n1-c1ccccc1	inactive
O=C(NC(=S)Nc1ccc(N2CCN(C(=O)c3ccccc3)CC2)cc1)c1cccs1	inactive
CN(C)C=Nc1c(C(=O)c2ccccc2)sc2nccc(N(C)C)c12	8.53 µM
CC1(C)Cc2c(ccc3ccccc23)C(=O)N1	inactive
COc1cccc(/C=N/NC(=O)CNC(=O)C2COc3ccccc3O2)c1O (stereo not given)	inactive
CC(NC(=O)COC(=O)c1cccs1)c1ccccc1 (stereo not given)	> 35.9 µM (inactive)
Oc1ccc(C=NNc2ccccn2)c(O)c1	inactive
Cc1ccc(C(=O)Nc2sc(C)c(-c3ccccc3)c2C(N)=O)cc1[N+](=O)[O-]	> 35.9 µM (inactive)
COc1cc(/C=C2\CC(C(C)(C)C)C/C(=C\c3cc(OC)c(OC)c(OC)c3)C2=O)cc(OC)c1OC (stereo not given)	> 35.9 µM (inactive)
COC(CN(C(=O)CCl)C(C(=O)NC1CCCCC1)c1ccccc1C)OC (stereo not given)	9.53 µM
Cc1ccc(O)c(Nc2ncnc3ccc([N+](=O)[O-])cc23)c1	inactive
COc1ccc2c(c1)-c1c(ssc1=S)C(C)(C)N2C(=O)CSC1=NCCS1	inactive
Cc1ccc(C)c(NC(=O)c2ccccc2NS(=O)(=O)c2cc([N+](=O)[O-])ccc2C)c1	4.81 µM
Nc1ccc(Oc2ccccc2-c2ccccc2)cc1	inactive
CNc1cccnc1C=NNC(N)=S	3.45 µM
COC(=O)c1sc2cnccc2c1N	inactive
CCN1CCN(C(=S)c2ccc(-c3ccccc3)cc2)CC1	> 35.9 µM (inactive)
C=CCc1ccccc1OCC(=O)N/N=C/c1ccc(OC(C)=O)cc1OC(C)=O	inactive
CN1CCN(c2cccc3c2C(=O)c2ccccc2C3=O)CC1	> 35.9 µM (inactive)
CCOc1ccc(/C=C2\SC(=S)N(CCC(=O)O)C2=O)cc1	> 35.9 µM (inactive)
CCc1c(C)nc2c(C)cccc2c1SCCC#N	> 35.9 µM (inactive)
O=[N+]([O-])c1cccc2c1ccc1ncccc12	9.46 µM
CCCCCCCC[n+]1c(C)n(-c2ccccc2)c2ccc(NC(C)=O)cc21	> 35.9 µM (inactive)
c1ccc(-c2nnc(-c3ccccn3)nc2NC2CCCCC2)cc1	5.22 µM
CCCCCOc1ccc(/C=C/c2c([N+](=O)[O-])c(=O)n(C)c(=O)n2C)cc1	9.08 µM
Nc1nc(CCl)nc(Nc2cccc3ccccc23)n1	inactive

SMILES	IC50
Cc1ccc2occ(/C=N/NC(=O)c3ccncc3)c(=O)c2c1	inactive
S=C(c1ccc(-c2ccccc2)cc1)N1CCOCC1	> 35.8 µM (inactive)
CC(C)(C)NC(=O)C1(C)CCC(=O)N1CCCn1ccnc1 (stereo not given)	inactive
Fc1cccc(CSc2nnc3ccc(-c4ccncc4)nn23)c1	> 35.8 µM (inactive)
COc1ccc(C(O)(C(C)C)C(CN2CCOCC2)c2ccc(Cl)cc2)cc1 (stereo not given)	inactive
O=C(N/N=C/c1ccc(O)cc1O)/C(=C/c1ccccc1)CCO	inactive
O=C(COC(=O)c1ccc[nH]c1=O)Nc1ccc(N2CCCCC2)cc1	> 35.9 µM (inactive)
Cc1ccc(N(Cc2cc(=O)[nH]c3ccccc23)C(=O)CCl)c(C)c1	5.31 µM
CC(=O)/C(N=Nc1ccc2c(c1)OCCO2)=C(\C)O	> 35.9 µM (inactive)
COc1ccccc1N(C(=O)CCl)c1cn(C(C)=O)c2ccccc12	> 35.9 µM (inactive)
CN(C)c1ccc(/C=C/c2nc3ccccc3s2)cc1	inactive
O=C(CCl)NC(Cc1ccccc1)c1ccccc1 (stereo not given)	inactive
NS(=O)(=O)c1ccc(Nc2nc(-c3cccnc3)cs2)cc1	> 35.8 µM (inactive)
O=C1CCC2S/C(=C/Nc3ccc(C(F)(F)F)cc3)C(=O)N12 (stereo not given)	> 35.9 µM (inactive)
Cc1ccc(OCC(=O)c2cc(C)n(Cc3cccs3)c2C)c([N+](=O)[O-])n1	> 35.9 µM (inactive)
CC(C)Cn1c(N)c(C(=O)COC(=O)c2cc3ccccc3cc2O)c(=O)n(C)c1=O	> 35.9 µM (inactive)
O=c1ccc2c(ccc3ncccc32)o1	inactive
Cc1cccc(C)c1-c1ccc(CN2C(CC(C)C)C(=O)N(Cc3cn(CC4CCCCC4)nn3)CCS2(=O)=O)cc1 (stereo not given)	inactive
Nc1ncccc1C(=O)OCC(=O)N1CCN(S(=O)(=O)c2ccc(Cl)cc2)CC1	inactive
CN(Cc1cnc2nc(N)nc(N)c2n1)c1ccc(C(=O)NC(CCC(=O)O)C(=O)O)cc1 (stereo not given)	> 35.9 µM (inactive)
Cc1cccc(C)c1-n1nnnc1C(c1cccs1)N1CCC2(CC1)C(=O)NCN2c1ccccc1 (stereo not given)	inactive
Cc1c(C(=O)N/N=C/C(C)C)[nH]c2ccc([N+](=O)[O-])cc12	inactive
CCC(=O)c1ccc(Oc2nc3c(c(=O)n(C)c(=O)n3C)n2CC)cc1	7.62 µM
O=C(Nc1nc(-c2ccccn2)cs1)c1cccc(-n2cnnn2)c1	inactive
CCOC(=O)CC(=O)CSc1nccc(-c2cccnc2)n1	inactive
NC(=O)c1cc(Sc2ccccc2)nc2ccccc12	7.5 µM
Cc1cccn2c(=O)c3cc(C(=O)NCCN4CCOCC4)c(=N)n(Cc4cccnc4)c3nc12	inactive

SMILES	IC50
CC1CCCCN1c1ncnc2ccccc12 (stereo not given)	> 35.9 µM (inactive)
O=C(NC(NC(=S)N1CCOCC1)C(Cl)(Cl)Cl)c1ccc(Cl)cc1 (stereo not given)	> 35.9 µM (inactive)
N#Cc1c2ccc(O)cc2n2ccccc12	> 35.9 µM (inactive)
Cc1cc(=O)[nH]c(Nc2cccc(Br)c2)n1	inactive
COc1cccc(NC(=O)CN(C)CC(=O)Nc2ccc(Cl)cc2[N+](=O)[O-])c1	inactive
O=C(N/N=C/c1ccccc1O)/C(=C/c1ccccc1)CCO	inactive
CCn1ccnc1CN(C)Cc1cn[nH]c1-c1ccc(F)cc1F	inactive
c1nc2sc3c(c2c2nnnn12)CCCC3	inactive
CCOc1ccccc1-n1c(SCC(=O)Nc2ccccc2C(=O)O)nc2ccccc2c1=O	> 35.9 µM (inactive)
Cc1nc2ccccn2c1-c1ccnc(=S)[nH]1	6.33 µM
Cc1ccc(/C=C2\SC(=S)N(CCCC(=O)NC3CCCC3)C2=O)cc1	3.37 µM
CC[C@@]1(O)C(=O)OCc2c1cc1n(c2=O)Cc2cc3c(NC(=O)CN)cccc3nc2-1	> 35.9 µM (inactive)
O=C(CSc1nc(-c2cccs2)cc(C(F)(F)F)n1)Nc1cc(OCC(F)(F)C(F)F)cc([N+](=O)[O-])c1	> 35.9 µM (inactive)
COc1ccc(NC(=O)CN(C)C(=O)C2(c3ccccc3)CCCC2)cc1	inactive
COc1cc(OC)c2cc(C(=O)N/N=C/c3cccc(OC)c3O)[nH]c2c1	inactive
Cc1ccc(S(=O)(=O)NC(CC(C)C)C(=O)NCC(c2ccco2)N2CCCCC2)cc1 (stereo not given)	> 35.9 µM (inactive)
COC(=O)N(NC(=O)C(O)(CCC(C)C)CCC(C)C)c1ccccc1	> 35.9 µM (inactive)
O=C(Nc1cccc2c1CCCC2)c1cc([N+](=O)[O-])ccc1Cl	> 35.9 µM (inactive)
CCn1c(Oc2cccc(Br)c2)nc2c1c(=O)n(C)c(=O)n2C	inactive
Cc1cc(/C=C2\Cc3ccccc3C2=O)c(C)n1-c1ccccc1	> 35.9 µM (inactive)
CCc1nc(N)nc(N)c1-c1ccc(Cl)c([N+](=O)[O-])c1	6.12 µM
COc1ccccc1/C=C\C(=O)NCC(=O)N/N=C/c1cccc(OC)c1O	inactive
Cc1sc2ncnc(N3CCC(C(=O)Nc4cc(S(C)(=O)=O)ccc4Cl)CC3)c2c1C	inactive
Cc1ccc(N=c2c([N+](=O)[O-])nn(-c3ccc4c(c3)OCCO4)n2O)cc1F	inactive
COc1cc2c(cc1OC)C(NC(=O)C(F)(F)F)CNC2=O (stereo not given)	6.97 µM
CNc1ncnc(Sc2nc(N)nc3nc[nH]c23)c1[N+](=O)[O-]	> 35.9 µM (inactive)
COc1ccc(-c2ncncc2-c2ccccc2)c(O)c1	inactive

SMILES	IC50
CCN(c1ccccc1)S(=O)(=O)c1cc(C(=O)Nc2ccc(Br)cc2)ccc1F	> 12 µM (inactive)
Cc1ccc(NC(=O)CCC(=O)N/N=C/c2ccc(O)cc2O)cc1	inactive
CN(Cc1cnc2nc(N)nc(N)c2n1)c1ccc(C(=O)N[C@@H](CCC(=O)O)C(=O)O)cc1	> 35.9 µM (inactive)
CCOc1cc(C(N)=O)cc(Br)c1OC	inactive
CCOc1ccc(-c2noc(CCC(=O)O)n2)cc1	> 35.9 µM (inactive)
Cc1ccc(S(=O)(=O)Nc2c(NC3CCCCC3)c3ccccc3oc2=O)c(C)c1	> 35.9 µM (inactive)
COc1cccc(/C=N/NC(=O)C(=O)Nc2ccccc2OC(F)(F)C(F)F)c1O	5.69 µM
Cc1cc(C)nc(SCc2ccc(C(=O)N/N=C/c3cccc(O)c3O)cc2)n1	5.18 µM
O=C(CCC(=O)Nc1ccc(Br)cc1)N/N=C/c1ccccc1O	4.94 µM
CC(C)(C)c1cc(C(=O)N/N=C/c2ccc(O)cc2)n(-c2ccccc2)n1	> 35.9 µM (inactive)
OCCN1CCN(C(=S)c2ccc(-c3ccccc3)cc2)CC1	> 35.9 µM (inactive)
CC(=O)c1cccc(NC(=O)COc2cc3oc(=O)c(CC(C)O)c(C)c3cc2Cl)c1 (stereo not given)	> 35.9 µM (inactive)
CCOC(=O)c1cccc2c1-c1ccccc1/C2=N/O	7.13 µM
Cc1c2ccncc2cc2c1[nH]c1ccccc12	> 35.9 µM (inactive)
C=CCn1c(Oc2ccccc2F)nc2c1c(=O)n(C)c(=O)n2C	inactive
COc1cccc2c1C(=N)c1c(O)c3c(c(O)c1C2=O)CC(O)(C(C)=O)CC3OC1CC(N)C(O)C(C)O1 (stereo not given)	> 35.9 µM (inactive)
c1cc2c(cn1)cnc1cscc12	inactive
CN(CC(=O)Nc1ccc(Cl)c(C(F)(F)F)c1)C(=O)C1CC(=O)N(c2ccc3c(c2)OCCO3)C1 (stereo not given)	inactive
NC(=S)NN=Cc1ccc(OC(=O)COc2cc(Cl)c(Cl)cc2Cl)cn1	inactive
c1cnc2ccc(-n3ccnc3)cc2c1	> 35.9 µM (inactive)
COc1ccc2c(C#N)c3ccccn3c2c1	inactive
Cn1nc(C(F)(F)F)c(C#N)c1N1CCN(c2ccccc2)CC1	7.05 µM
CCC(=O)Oc1c(C(=O)CC)cc2c(C)cc(=O)oc2c1C	> 35.8 µM (inactive)
N#Cc1cc2ccncc2c2ccccc12	> 35.9 µM (inactive)
